Data taken from patent US6582910B1, “WbpP and method for assay of WbpP” (priority 1999, dated 2003).
Entries after “also recorded” stand apart in the source; their conditions may differ.

Key:
WbpP [1] = target: T1, WbpP (Pseudomonas aeruginosa, UniProt Q8KN66); test: Requirement for NAD+ or divalent cations for enzymatic activity (capillary electrophoresis); format: biochemical; conditions: NAD+ 1 mM, divalent cations 4 mM, acetylated or non-acetylated substrates
T1 construct: made in house; host or cells: E. coli BL21(DE3)pLysS, pET23 derivative
Protocol: Study of the Requirement for NAD+ or divalent cations for enzymatic activity—To access the requirement for NAD+ or divalent cations for the enzymatic activity of WbpP, reactions were carried out with or without NAD+ (1 mM final concentration), and with or without divalent cations (4 mM final concentration of MnCl2, MgCl2, or CaCl2) and monitored by capillary electrophoresis as described above.

WbpP [2] = target: T1, WbpP; test: DMAB spectrophotometric assay of epimerisation of UDP-GlcNAc and UDP-GalNAc; format: biochemical; conditions: for Specific activity: 0.75 mM substrate
Protocol: Determination of the enzymatic conversion of UDP-GlcNAc and UDP-GalNAc using p-dimethylaminobenzaldehyde (DMAB)—Reactions were performed with a total reaction volume of 35 μl at 37° C. in 20 mM Tris pH 8 unless stated otherwise. The specific amount of enzyme used, substrate concentrations, and incubation time are indicated in the legend of each figure. The reactions were stopped by acid hydrolysis of the UDP moiety of the substrate. For this purpose, the samples were acidified to pH 2 by addition of 7 μl of HCl 0.1 N, boiled for 6 min, and neutralised by addition of 7 μl of NaOH 0.1 N. For the spectrophotometric quantification of GalNAc and GlcNAc, the reagent DMAB was prepared at 10% in glacial acetic acid/HCl 9/1 v/v, and further diluted 1/10 in glacial acetic acid before use (Reissig et al. (1955)). For the assay itself, 100 μl of 0.2 M sodium tetraborate pH 9.1 were added to 50 μl of quenched and neutralised enzymatic reactions and boiled immediately for 3 min. 40 μl of this mixture were transferred to a microtitration plate and 200 μl of DMAB reagent were added. After incubation for 30 min at 37° C., the OD595 nm was recorded using a microplate reader. For practical reasons, the DMAB assay was carried out using a wavelength setting of 595 nm in the spectrophotometer. […] The assay was done in duplicate for each reaction tested. Standard curves were prepared using UDP-GlcNAc and UDP-GalNAc that were subjected to acid hydrolysis in the same conditions as described above.
FIG. 3: Study of the epimerisation of UDP-GlcNAc and UDP-GalNAc by WbpP using the DMAB assay. Panel A, standard curves obtained with each compound separately. Open circles, UDP-GlcNAc; Open squares, UDP-GalNAc. Panel B, comparison of the experimental data (closed triangles) obtained for mixtures of UDP-GalNAc and UDP-GlcNAc of different proportions (constant total sugar-nucleotide concentration of 0.75 mM) and the theoretical data (open triangles) calculated from the standard curves from panel 3A. 3C: Activity of WbpP as a function of the amount of enzyme added. The reactions were performed with […] substrate in a total volume of 35 μl for 8 min at 37° C. Closed circles, UDP-GlcNAc; Closed squares, UDP-GalNAc.
FIG. 6: Determination of the optimum pH and temperature for the epimerisation of UDP-GlcNAc by WbpP using the DMAB assay: For the pH study (panel A), the reactions were performed with 5 mM UDP-GlcNAc and 39 ng of enzyme in a total volume of 44 μl and incubated for 10 min at 37° C. The pH between 5 and 7 were obtained with 50 mM sodium acetate buffer (open circles), whereas pH 7 to 10 were obtained with 50 mM Tris-HCl (closed circles). For the temperature study (panel B), the reactions were performed in 50 mM Tris-HCl pH 8 with 5 mM UDP-GlcNAc and 0.78 ng of enzyme in a total volume of 44 μl and 30 min incubation. For both panels, two enzymatic reactions were set up in each experimental condition and two determinations of residual UDP-GlcNAc were made per reaction. Each point represents the average of the four determinations.

WbpP [3] = target: T1, WbpP; test: Capillary electrophoresis, kinetic parameters for UDP-GlcNAc and UDP-GalNAc; format: biochemical; conditions: acetylated substrates; for kcal: CE; for Km / Vmax: initial rates, 3 min, 37° C., 20 mM Tris pH 8, CE
Protocol: Determination of the kinetic parameters for UDP-GlcNAc and UDP-GalNAc by capillary electrophoresis—Reactions were performed at 37° C. in 20 mM Tris pH 8 with a total reaction volume of 44 μl. The amount of purified enzyme added was 234 ng and 117 ng for reaction with UDP-GlcNAc and UDP-GalNAc, respectively. After incubation at 37° C. for the required amount of time, the reactions were quenched by boiling the sample for 6 min. Time course studies were performed with final sugar-nucleotide concentrations of 0.075 and 1.75 mM. Samples were quenched after 0, 2, 4, 6, 8, 10 and 15 min. […] Capillary electrophoresis (CE) analysis was performed using a P/ACE 5000 system (Beckman, Fullerton, Calif.) with UV detection. The running buffer was 25 mM sodium tetraborate pH 9.4. The capillary was bare silica 75 μm×57 cm, with a detector at 50 cm. The capillary was conditioned before each run by washing with 0.2 M NaOH for 2 min, water for 2 min, and running buffer for 2 min. Samples were introduced by pressure injection for 4 s and the separation was performed at 22 kV. Peak integration was done using the Beckman P/ACE Station software. The calculation of kinetic parameters was done using the PRISM program.
FIG. 4: Capillary electrophoresis analysis of the epimerisation of UDP-GlcNAc and UDP-GalNAc by WbpP at equilibrium. The reactions were performed in a total volume of 35 μl with 1.5 mM substrate and 17 μg of enzyme. They were incubated at 37° C. for 2 h. 1, UDP-GalNAc alone; 2, UDP-GlcNAc alone; 3, UDP-GlaNAc+WbpP; 4, UDP-GlcNAc+WbpP.
FIG. 5: Time Course of epimerisation of UDP-GlcNAc and UDP-GalNAc by WbpP as measured by capillary electrophoresis. Reactions were performed at 37° C. in 20 mM Tris pH 8 with a total reaction volume of 44 μl. The amount of purified enzyme added was 234 ng and 117 ng for reaction with UDP-GlcNAc and UDP-GalNAc, respectively. Closed circles, UDP-GlcNAc 0.075 mM; Closed squares, UDP-GalNAc 0.075 mM; Open circles, UDP-GlcNAc 1.75 mM; Open squares, UDP-GalNAc 1.75 mM.

[4] = target: the molecule itself; test: gel filtration on G100 Sephadex, self-association (homodimer)
[5] = Storage stability of purified WbpP; format: physicochemical; conditions: −20° C. in 25% glycerol or 20% adonitol in Tris pH 8
Protocol: Purification of WbpP by chromatography—Cells sedimented from 100 ml induced culture were resuspended in 10 ml of buffer A (5 mM imidazole, 20 mM Tris pH 8, 0.1 M NaCl). The cells were briefly sonicated (macrotip, sonicator XL2020 Heat systems Incorporated, power set to 4, 2 min total, 5 sec on, 5 sec off) on ice. Cell debris were removed by centrifugation at 13000×g for 15 min at 4° C. and the supernatant was applied to a 3 ml fast flow cielating sepharose column (Amersham-Pharmacia, Quebec) previously loaded with nickel sulfate (30 ml of 0.1 M) and equilibrated with 5 column volumes (CV) of buffer A. Loading of the sample as well as all washing and elution steps were done by gravity. After loading of the sample, the column was washed with 10 CV of buffer A and 5 CV of buffer B (20 mM imidazole, 20 mM Tris pH 8, 0.1M NaCl). Elution was carried out with 3 CV of buffer C (1 M imidazole, 20 mM Tris pH 8, 0.5 M NaCl 0.1 M). Fractions were collected every 1 CV. […] This fraction was subjected to further purification by anion exchange chromatography after dilution 1/30 in 50 mM Tris pH 8. Half of it was loaded onto a 1 ml column of Q Sepharose fast flow (Pharmacia). The column was washed with 30 CV of Tris buffer and the protein was eluted with 3 CV of 50 mM Tris pH 8, 0.5 M NaCl. […] Protein quantitation was done using the BCA reagent (Pierce, Rockford, Ill.).

[6] = fraction: anion exchange (purified WbpP)

With [Ca+2].[Cl-].[Cl-] [Ca^2+] the “Necessity of addition to the reaction mixture for the C4 epimerase activity” value (“Necessity of addition” below) (WbpP [1]) was “not necessary; also recorded: active without requiring addition”.

For [Cl-].[Cl-].[Mg+2] [Mg^2+], the “Necessity of addition” value (WbpP [1]) was “active without requiring addition” and the “Necessity of addition” value (WbpP [1]; listed as Mg2^1) was “not necessary”.

With [Cl][Mn][Cl] [Mn^2+] the “Necessity of addition” value (WbpP [1]) was “not necessary; also recorded: active without requiring addition”.

For NC(=O)c1ccc[n+]([C@@H]2O[C@H](COP(=O)([O-])OP(=O)(O)OC[C@H]3O[C@@H](n4cnc5c(N)ncnc54)[C@H](O)[C@@H]3O)[C@@H](O)[C@H]2O)c1 [NAD^+], the “Necessity of addition” value (WbpP [1]) was “active without requiring addition” and the “Necessity of addition” value (WbpP [1]; listed as NAD^1) was “not necessary”.

For CC(=O)N[C@H]1[C@@H](OP(=O)(O)OP(=O)(O)OC[C@H]2O[C@@H](n3ccc(=O)[nH]c3=O)[C@H](O)[C@@H]2O)O[C@H](CO)[C@H](O)[C@@H]1O [UDP-GalNAc, UDP-N-acetylgalactosamine], the “Maximum substrate conversion (at equilibrium)” value (WbpP [2]; acetylated substrates, epimerisation by WbpP) was about 70%, the Specific activity (WbpP [2]; fraction: IMAC) was 4.6 U/mg and the Specific activity (WbpP [2]; [6]) was 5.6 U/mg. The Specific activity (WbpP [2]; fraction: soluble fraction) was 3.4 U/mg, the Specific activity (WbpP [2]; fraction: total cell extract) was 2.6 U/mg and the “Specific activity of purified WbpP” value (WbpP [2]) was 5.6 Units/mg. The kcal (WbpP [3]) was 271 ± 7 min⁻¹, the Km (WbpP [3]) was 197 µM and the Vmax (WbpP [3]) was 840 ± 25 pmol/min.

For CC(=O)N[C@H]1[C@@H](OP(=O)(O)OP(=O)(O)OC[C@H]2O[C@@H](n3ccc(=O)[nH]c3=O)[C@H](O)[C@@H]2O)O[C@H](CO)[C@@H](O)[C@@H]1O [UDP-GlcNAc, UDP-N-acetylglucosamine], the Specific activity (WbpP [2]; fraction: IMAC) was 2.0 U/mg, the Specific activity (WbpP [2]; [6]) was 2.3 U/mg and the Specific activity (WbpP [2]; fraction: soluble fraction) was 1.1 U/mg. For the same molecule, the Specific activity (WbpP [2]; fraction: total cell extract) was 0.2 U/mg, the “Specific activity of purified WbpP” value (WbpP [2]) was 2.3 Units/mg and the kcal (WbpP [3]) was 120 ± 3 min⁻¹. For the same molecule, the Km (WbpP [3]) was 224 µM and the Vmax (WbpP [3]) was 741 ± 22 pmol/min.

B1: WbpPO6 carrying a N-terminal hexahistidine tag (enzyme)
chain: MHHHHHHGSMGMMSRYEELRKELPAQPKVWLITGVAGFIGSNLLETLLKLDQKVVGLDNFATGHQRNLDEVRSLVSEKQWSNFKFIQGDIRNLDDCNNACAGVDYVLHQAALGSVPRSINDPITSNATNIDGFLNMLIAARDAKVQSFTYAASSSTYGDHPGLPKVEDTIGKPLSPYAVTKYVNELYADVFSRCYGFSTIGLRYFNVFGRRQDPNGAYAAVIPKWTSSMIQGDDVYINGDGETSRDFCYIENTVQANLLAATAGLDARNQVYNIAVGGRTSLNQLFFALRDGLAENGVSYHREPVYRDFREGDVRHSLADISKAAKLLGYAPKYDVSAGVALAMPWYIMFLK
notes: Expressed in E. coli BL21(DE3)pLysS from a pET23 derivative and purified by nickel chelation and anion exchange; In the Western immunoblot it stood as the SDS-denatured single chain; this is not a protein partner; also called WbpP epimerase; UDP-GlcNAc C4 epimerase
In the case of B1, the binding result [4] is reported as “binds”, the “pH with significant activity” value (WbpP [2]; epimerisation of UDP-GlcNAc) is reported as over 6.5 and the Activity after storage [5] is reported as “without any significant loss of activity”.
